Results: publication PMC10427817, “Bioactivities of β-mangostin and its new glycoside derivatives synthesized by enzymatic reactions” (Royal Society Open Science, 2023)
Values after ≈ are worked out from the molar mass of the structure shown. Where two headings read alike, the source gives them in different places.

How the values were obtained:
α-glucosidase = conditions: ref 43; cited from earlier work
BuChE = conditions: cited from earlier work
AChE = AChE (Homo sapiens, UniProt P22303); conditions: ref 32; cited from earlier work
[1] = test system: hepatocellular carcinoma cell lines (Huh-7, Hep3B, HepG2); design: method as in PMID 32516967; conditions: cited from earlier work
Staphylococcus aureus = experiment: Anti-microbial activity assay, S. aureus; assay type: cell-based
Protocol: (§1) Bacterial and fungal strains (Bacillus subtilis, Staphylococcus aureus, Lactobacillus fermentum, Escherichia coli, Pseudomonas aeruginosa, Salmonella enterica and Candida albicans) were activated on TSA (Tryptic Soy Agar) and SA (Sabouraud–4% dextrose agar) media, respectively. Before the experiment, the microbial strains were grown in the corresponding liquid media at a concentration of approximately 5 × 10^5 CFU ml^−1 for bacteria and 1 × 10^3 CFU ml^−1 for fungi. The microbial suspension (190 µl) was mixed with 10 µl of the test sample, which was serially diluted twofold, and the microplate was incubated at 37°C for 16–24 h.

Bacillus subtilis = experiment: Anti-microbial activity assay, B. subtilis; assay type: cell-based
Protocol: as §1

Lactobacillus fermentum = experiment: Anti-microbial activity assay, L. fermentum; assay type: cell-based
Protocol: as §1

Pseudomonas aeruginosa = experiment: Anti-microbial activity assay, P. aeruginosa; assay type: cell-based; conditions: Pseudomonas aeruginosa
Protocol: as §1

Escherichia coli = experiment: Anti-microbial activity assay, E. coli; assay type: cell-based; conditions: Escherichia coli
Protocol: as §1

Salmonella enterica = experiment: Anti-microbial activity assay, S. enterica; assay type: cell-based
Protocol: as §1

Sequence of AChE (P22303 32-614): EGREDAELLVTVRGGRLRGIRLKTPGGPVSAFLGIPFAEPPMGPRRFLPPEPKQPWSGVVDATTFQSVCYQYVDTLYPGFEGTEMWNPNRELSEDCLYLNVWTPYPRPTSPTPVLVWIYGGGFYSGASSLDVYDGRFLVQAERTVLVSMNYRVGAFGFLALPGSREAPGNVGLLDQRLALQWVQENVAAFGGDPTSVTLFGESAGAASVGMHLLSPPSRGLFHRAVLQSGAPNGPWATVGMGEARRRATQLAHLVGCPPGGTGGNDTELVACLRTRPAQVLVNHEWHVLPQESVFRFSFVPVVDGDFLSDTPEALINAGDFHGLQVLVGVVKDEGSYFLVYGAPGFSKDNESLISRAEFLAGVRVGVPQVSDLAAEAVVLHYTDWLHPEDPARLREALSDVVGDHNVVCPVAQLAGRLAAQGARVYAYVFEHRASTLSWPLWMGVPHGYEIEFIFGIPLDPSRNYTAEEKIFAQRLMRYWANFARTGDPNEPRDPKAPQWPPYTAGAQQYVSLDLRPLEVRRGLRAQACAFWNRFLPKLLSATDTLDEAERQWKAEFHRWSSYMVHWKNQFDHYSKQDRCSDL

O=c1c2cc(O)ccc2oc2cc(O)cc(O)c12 [1,3,7-trihydroxyxanthone]
fold stronger α-glucosidase inhibitory activity than 1-hydroxyxanthone (α-glucosidase): 12 fold

O=c1c2ccccc2oc2cc(OCCN3CCCC3)cc(O)c12 [3-(2-(pyrrolidinyl)ethoxy)-1-hydroxy-9H-xanthen-9-one]
IC50 (BuChE; ref 32): 31.2 µM | IC50 (AChE): 2.4 µM

COc1c(O)cc2oc3cc(O[C@H]4C[C@@H](O)[C@H](O)[C@@H](CO)O4)c(CC=C(C)C)c(O)c3c(=O)c2c1CC=C(C)C [Man-3DG, α-mangostin 3-O-β-D-2-deoxyglucopyranoside]
growth and migration of hepatocellular carcinoma cell lines [1]: suppressed the growth and migration

COc1c(O[C@H]2C[C@@H](O)[C@H](O)[C@@H](CO)O2)cc2oc3cc(O)c(CC=C(C)C)c(O)c3c(=O)c2c1CC=C(C)C [Man-6DG, α-mangostin 6-O-β-D-2-deoxyglucopyranoside]
growth and migration of hepatocellular carcinoma cell lines [1]: suppressed the growth and migration

CC1(C)S[C@@H]2[C@H](NC(=O)[C@H](N)c3ccccc3)C(=O)N2[C@H]1C(=O)O [ampicillin, reference compound]
IC50 (Staphylococcus aureus): 0.02 ± 0.005 µg/mL (≈ 0.0572 µM) | MIC (Staphylococcus aureus): 0.125 µg/mL (≈ 0.358 µM) | IC50 (Bacillus subtilis): 3.62 ± 0.15 µg/mL (≈ 10.4 µM) | MIC (Bacillus subtilis): 32 µg/mL (≈ 91.6 µM) | IC50 (Lactobacillus fermentum): 1.03 ± 0.07 µg/mL (≈ 2.95 µM) | MIC (Lactobacillus fermentum): 32 µg/mL (≈ 91.6 µM)

CO/N=C(\C(=O)N[C@@H]1C(=O)N2C(C(=O)O)=C(COC(C)=O)CS[C@H]12)c1csc(N)n1 [cefotaxime, reference compound]
IC50 (Pseudomonas aeruginosa): 4.34 ± 0.15 µg/mL (≈ 9.53 µM) | MIC (Pseudomonas aeruginosa; read-out: MIC): 8 µg/mL (≈ 17.6 µM) | IC50 (Escherichia coli): 0.007 ± 0.002 µg/mL (≈ 0.0154 µM) | MIC (Escherichia coli; read-out: MIC): 0.5 µg/mL (≈ 1.1 µM) | IC50 (Salmonella enterica): 0.43 ± 0.05 µg/mL (≈ 0.944 µM) | MIC (Salmonella enterica): 32 µg/mL (≈ 70.3 µM)

COc1c(O)cc2oc3cc(O)c(CC(O)C(C)(C)O)c(O)c3c(=O)c2c1CCC(C)C (stereo not drawn) [compound (5), 2-(2,3-dihydroxy-3-methylbutyl)-1,3,6-trihydroxy-8-isopentyl-7-methoxy-9H-xanthen-9-one]
IC50 (BuChE; ref 31): 7.55 µM
